Data: patent US11612605B2, “(+)-azasetron for use in the treatment of ear disorders” (SENSORION, priority 2016, dated 2023)
Where two headings read alike, the source gives them in different places.

Assay: Pharmacokinetics study: exposure in inner ear, perilymph and tail plasma after single oral dose
Type: in vivo, Wistar rats
Settings: for Total AUC Inner ear / Total AUC Perilymph / Total AUC Tail plasma / concentration at 15 min / concentration at 30 min / concentration at 60 min / concentration at 120 min / concentration at 240 min / concentration at 480 min: 10 mg/kg p.o. single dose; for concentration at 15 min / concentration at 30 min / concentration at 60 min / concentration at 120 min / concentration at 240 min / concentration at 480 min / AUC: male, Wistar, rat; for concentration at 15 min / concentration at 30 min / concentration at 60 min / concentration at 120 min / concentration at 240 min / concentration at 480 min: oral, read-out: Average Inner ear concentration (ng azasetron free-base/g tissue); for AUC: po, 10 mg/kg, 10 mg/kg p.o., per-interval AUC of azasetron free-base
Source text: The 72 male Wistar rats received on 28 Jan. 2016 from Janvier (Janvier, Le Genest-St-Isle) were assigned to the study. They were divided in 3 groups of 24 animals each, one group per test article. Each group was divided in […] subgroups according to the 6-termination time-points.
72 Wistar rats were subjected to oral single dose administration of the test article, racemic azasetron hydrochloride, azasetron hydrochloride (+) or azasetron hydrochloride (−), and sacrificed at different time-points to assess the exposure of the test article in the inner ear, perilymph, and plasma. • Group racemic azasetron: 24 male Wistar, 4 rats per time-point: 10 mg/kg azasetron HCl dissolved in NaCl 0.9%. Administrated as 5 mL/kg p.o.; • Group azasetron (+): 24 male Wistar, 4 rats per time-point: 10 mg/kg (+)-azasetron HCl dissolved in NaCl 0.9%. Administrated as 5 mL/kg p.o.; • Group azasetron (−): 24 male Wistar, 4 rats per time-point: 10 mg/kg (−)-azasetron HCl dissolved in NaCl 0.9%. Administrated as 5 mL/kg p.o.
There were 6 termination time-points for each test article. At time-points 15/30/60/120/240/480 minutes after administration: peripheral plasma from the tail was sampled. The animals were sacrificed by i.v. administration of 0.25 mL/rat of a 160 mg/mL pentobarbital solution. Following sacrifice, the heart blood and both tympanic bullas (left and right) were sampled.
Both tympanic bullas (left and right) were collected, however, only the left one was used for the perilymph and inner ear analysis. The right bulla was stored at −20° C. for future needs when required. For animal IDs 1 and 4, the right bulla was used for the sampling of perilymph and inner ear.
The left bulla was dissected fresh. Briefly, the bulla was opened via the auditory opening to reveal the bone surrounding the cochlea after which the tip of the bone was removed with forceps and a 10 μL pipette tip was inserted to withdraw perilymph.
Upon exposure of the tip of the cochlea, 2 μL of perilymph (fluid) could be recovered from the bulla. The perilymph was brought to 10 μL by the addition of 8 μL water, and then extract via the addition of 30 μL of acetonitrile. After that, the samples were centrifuged and the supernatant was transferred to a glass vial appropriate for the HPLC-MS auto-sampler.
Following recovering of the perilymph, the bones of the inner ear and cochlea components were removed with fine forceps and added to a tared Eppendorf tube. The collection was weighed and brought to 10 mg with the addition of water and placed on ice until extraction. 30 μL of acetonitrile was added and the tubes were incubated in an ultrasound bath, after which they were centrifuged and the supernatant was transferred to a glass vial appropriate for the HPLC-MS auto-sampler. In the process or removing the bones of the inner ear, they were finely distributed in the media and broken by forceps. (Due to the very low volume of the tissue and its fine structure, separate grinding is considered risky vs the potential losses to plastic and media. The materials are very fine in nature and the bone particles are small thus providing only short interfaces to media. The absence of fat and the incubation in solvent is intended to provide sufficient solubility of active ingredient).
The acetonitrile used in the sample preparation for bio-analysis contained the internal standard for the HPLC-MS analysis.
30 μL acetonitrile including the internal standard were added to each 10 μL plasma sample. After adding the acetonitrile, the samples were mixed by vortex and further centrifuged. The supernatant was transferred to a glass vial appropriate for the HPLC-MS auto-sampler.
The LC system comprised an Agilent 1260 liquid chromatography equipped with a binary pump and a column oven, together with a PAL HTS-xt auto-sampler. It is linked to the AB SCIEX TRIPLE QUADTM 4500 (triple-quadrupole) instrument with an ESI interface and a switching valve integrated (Mass spectrometric analysis). […]

[1] = inner ear, Time 15 (min), read-out: Inner ear AUC (converted)
[2] = inner ear, Time 30 (min), read-out: Inner ear AUC (converted)
[3] = inner ear, Time 60 (min), read-out: Inner ear AUC (converted)
[4] = inner ear, Time 120 (min), read-out: Inner ear AUC (converted)
[5] = inner ear, Time 240 (min), read-out: Inner ear AUC (converted)
[6] = inner ear, Time 480 (min), read-out: Inner ear AUC (converted)
[7] = perilymph, Time 15 (min), read-out: Perilymph AUC (converted)
[8] = perilymph, Time 30 (min), read-out: Perilymph AUC (converted)
[9] = perilymph, Time 60 (min), read-out: Perilymph AUC (converted)
[10] = perilymph, Time 120 (min), read-out: Perilymph AUC (converted)
[11] = perilymph, Time 240 (min), read-out: Perilymph AUC (converted)
[12] = perilymph, Time 480 (min), read-out: Perilymph AUC (converted)
[13] = tail plasma, Time 15 (min), read-out: Tail plasma AUC (converted)
[14] = tail plasma, Time 30 (min), read-out: Tail plasma AUC (converted)
[15] = tail plasma, Time 60 (min), read-out: Tail plasma AUC (converted)
[16] = tail plasma, Time 120 (min), read-out: Tail plasma AUC (converted)
[17] = tail plasma, Time 240 (min), read-out: Tail plasma AUC (converted)
[18] = tail plasma, Time 480 (min), read-out: Tail plasma AUC (converted)

| SMILES | Total AUC Inner ear [nM·min] | Total AUC Perilymph [nM·min] | Total AUC Tail plasma [nM·min] | concentration at 15 min (inner ear, Time 15 (min)) [ng/g] | concentration at 30 min (inner ear, Time 30 (min)) [ng/g] | concentration at 60 min (inner ear, Time 60 (min)) [ng/g] | concentration at 120 min (inner ear, Time 120 (min)) [ng/g] | concentration at 240 min (inner ear, Time 240 (min)) [ng/g] | concentration at 480 min (inner ear, Time 480 (min)) [ng/g] | AUC [1] [µM·h] | AUC [2] [µM·h] | AUC [3] [µM·h] | AUC [4] [µM·h] | AUC [5] [µM·h] | AUC [6] [µM·h] | AUC [7] [µM·h] | AUC [8] [µM·h] | AUC [9] [µM·h] | AUC [10] [µM·h] | AUC [11] [µM·h] | other results |
| --- | --- | --- | --- | --- | --- | --- | --- | --- | --- | --- | --- | --- | --- | --- | --- | --- | --- | --- | --- | --- | --- |
| CN1C(=O)COc2c(C(=O)N[C@H]3CN4CCC3CC4)cc(Cl)cc21 [(+)-azasetron] | 69036 | 40910 | 210768 | 57 | 86 | 93 | 79 | 52 | 6 | 0.0204 | 0.051 | 0.127 | 0.246 | 0.375 | 0.331 | 0.0194 | 0.0297 | 0.0517 | 0.129 | 0.227 | AUC [12]: 0.225 µM·h; AUC [13]: 0.0983 µM·h; AUC [14]: 0.192 µM·h; AUC [15]: 0.35 µM·h; AUC [16]: 0.622 µM·h; AUC [17]: 1.11 µM·h; AUC [18]: 1.14 µM·h; exposure (total AUC) to azasetron in the perilymph, inner ear, and plasma versus racemic azasetron or (−)-azasetron (single equivalent oral dose (10 mg/kg)): greater exposure (total AUC) |
| CN1C(=O)COc2c(C(=O)NC3CN4CCC3CC4)cc(Cl)cc21 (racemic) [Racemic azasetron, N-(1-azabicyclo[2.2.2]octan-8-yl)-6-chloro-4-methyl-3-oxo-1,4-benzoxazine-8-carboxamide] | 43592 | 25873 | 177194 | 25 | 61 | 63 | 35 | 37 | 7 | 0.0119 | 0.0336 | 0.0887 | 0.14 | 0.204 | 0.248 | 0.0183 | 0.0328 | 0.0455 | 0.0635 | 0.117 | AUC [12]: 0.154 µM·h; AUC [13]: 0.168 µM·h; AUC [14]: 0.263 µM·h; AUC [15]: 0.309 µM·h; AUC [16]: 0.374 µM·h; AUC [17]: 0.758 µM·h; AUC [18]: 1.08 µM·h |
